Measured values as given in patent US20230107983A1, “COMPOUND ISOLATED FROM TORILIDIS FRUCTUS, AND ANTICANCER PHARMACEUTICAL COMPOSITION CONTAINING SAME AS ACTIVE INGREDIENT” (PHARMA-GENE CO., LTD., priority 2020, published 2023).

Key:
[1] = system: pancreatic cancer(BxPC-3) cell line; assay: WST-1 assay, cell viability of pancreatic cancer cell line; type: cell-based; details: 10-100 µg/Mℓ, 24 hours, FIG. 8
Method: (§1) The cytotoxicity of the Tr-9 compound to six cancer cell lines was confirmed. Lung cancer(A549), gastric cancer(AGS), liver cancer(Hep3B)), breast cancer(MDA-MB-231), colorectal cancer(HCT116) and pancreatic cancer(BxPC-3) cell lines and fibroblasts were aliquoted in a 96-well plate in an amount of 5×10^3 cells/well, and the novel compound Tr-9 was treated thereto at a concentration of 10, 20, 40, 60, 80, 100 µg/Mℓ for 24 hours, respectively. Lung cancer cell line was further treated at a concentration of 100 µg/Mℓ for 24 hours, 48 hours and 72 hours.
(§2) Then, the amount of living cells was measured using WST(high sensitive Water Soluble Tetrazolium salt). WST reacts with dehydrogenase in living cells and produces orange-colored watersoluble formazan. Since dehydrogenase that reacts with WST is an enzyme present in the mitochondrial electron transport chain of metabolically active cells and is effective only in living cells, the production of formazan is proportional to the number of living cells. Therefore, the absorbance at 450 nm was measured to confirm the cell viability through the formation of formazan.

[2] = system: colorectal cancer(HCT116) cell line; assay: WST-1 assay, cell viability of colorectal cancer cell line; type: cell-based, human; details: 10-100 µg/Mℓ, 24 hours, FIG. 7
Method: as §1, §2

[3] = system: Lung cancer(A549) cell line; assay: WST-1 assay, cell viability of lung cancer cell line; type: cell-based, human; details: 10-100 µg/Mℓ, 24 hours, FIG. 3
Method: as §1, §2

[4] = system: liver cancer(Hep3B) cell line; assay: WST-1 assay, cell viability of liver cancer cell line; type: cell-based; details: 10-100 µg/Mℓ, 24 hours, FIG. 6
Method: as §1, §2

[5] = system: gastric cancer(AGS) cell line; assay: WST-1 assay, cell viability of gastric cancer cell line; type: cell-based; details: 10-100 µg/Mℓ, 24 hours, FIG. 4
Method: as §1, §2

[6] = system: breast cancer(MDA-MB-231) cell line; assay: WST-1 assay, cell viability of breast cancer cell line; type: cell-based; details: 10-100 µg/Mℓ, 24 hours, FIG. 5
Method: as §1, §2

Measured: cell viability

C=C(C)C1CC2=CC(=O)CC2C(C)CC1OC(=O)/C(C)=C\C (stereo not drawn) [Tr-10]
decreases the cell viability: all assays above
